Experimental data from patent US9676766B2, “Triazolopyridines” (BAYER INTELLECTUAL PROPERTY GMBH, priority 2009, dated 2017).

Target: T1, human kinase Mps-1 (Homo sapiens, UniProt P33981)
T1 construct: N-terminally GST-tagged human full length recombinant Mps-1 kinase; purchased Invitrogen, Karslruhe, Germany PV4071
T1 sequence (P33981 1-857): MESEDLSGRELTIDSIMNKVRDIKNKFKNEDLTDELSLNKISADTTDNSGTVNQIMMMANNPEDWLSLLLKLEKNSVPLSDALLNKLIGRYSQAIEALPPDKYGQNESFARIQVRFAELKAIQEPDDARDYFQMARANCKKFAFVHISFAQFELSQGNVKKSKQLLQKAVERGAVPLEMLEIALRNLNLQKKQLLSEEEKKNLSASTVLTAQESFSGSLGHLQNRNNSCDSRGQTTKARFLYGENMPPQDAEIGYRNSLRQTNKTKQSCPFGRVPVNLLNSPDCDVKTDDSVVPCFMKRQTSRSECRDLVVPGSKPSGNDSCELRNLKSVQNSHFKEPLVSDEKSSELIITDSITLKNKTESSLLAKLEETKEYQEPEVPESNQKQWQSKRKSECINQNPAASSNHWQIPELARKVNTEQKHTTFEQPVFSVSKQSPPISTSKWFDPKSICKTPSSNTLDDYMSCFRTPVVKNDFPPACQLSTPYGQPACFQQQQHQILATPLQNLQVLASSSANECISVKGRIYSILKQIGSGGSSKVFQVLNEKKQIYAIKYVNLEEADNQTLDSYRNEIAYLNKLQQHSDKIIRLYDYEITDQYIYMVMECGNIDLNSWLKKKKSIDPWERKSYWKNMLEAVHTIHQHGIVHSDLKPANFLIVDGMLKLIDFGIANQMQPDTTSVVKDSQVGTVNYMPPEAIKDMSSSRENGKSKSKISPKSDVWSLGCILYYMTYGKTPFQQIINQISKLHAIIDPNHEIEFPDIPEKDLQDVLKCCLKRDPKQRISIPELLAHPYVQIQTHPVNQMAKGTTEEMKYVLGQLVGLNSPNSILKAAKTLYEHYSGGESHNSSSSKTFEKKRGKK
Assay: Mps-1 Kinase Assay (TR-FRET)
Assay type: biochemical
Conditions: N-terminally GST-tagged human full length recombinant Mps-1; 10 μM ATP; 1 μM biotinylated peptide substrate; 60 min at 22° C.; read-out: MPS1 Inhibition, IC50 in M

SMILES	IC50 [nM]
NC(C(=O)Nc1ccc(-c2ccc3nc(Nc4ccccc4C(F)(F)F)nn3c2)cc1)c1ccccc1 (racemic) [Example 5.7, rac-2-amino-2-phenyl-N-[4-(2-{[2-(trifluoromethyl)phenyl]amino}[1,2,4]triazolo[1,5-a]pyridin-6-yl)phenyl]acetamide]	14
COC(C(=O)Nc1ccc(-c2ccc3nc(Nc4ccccc4C(F)(F)F)nn3c2)cc1)c1ccccc1 (racemic) [Example 5.9, Rac-2-methoxy-2-phenyl-N-[4-(2-{[2-(trifluoromethyl)phenyl]amino}[1,2,4]-triazolo[1,5-a]pyridin-6-yl)phenyl]acetamide]	110
CO[C@H](C(=O)Nc1ccc(-c2ccc3nc(Nc4ccccc4C#N)nn3c2)cc1)c1ccccc1 (stereo in doubt) [Example 3.2, N-(4-{2-[(2-cyanophenyl)amino][1,2,4]triazolo[1,5-a]pyridin-6-yl}phenyl)-2-methoxy-2-phenylacetamide]	3.4
COc1ccccc1Nc1nc2ccc(-c3ccc(C(=O)NC4CC4)cc3)cn2n1 [Example 1.1, N-Cyclopropyl-4-[2-(2-methoxy-phenylamino)-[1,2,4]triazolo[1,5-a]pyridin-6-yl]-benzamide]	370
N#Cc1ccccc1Nc1nc2ccc(-c3cccc(C(=O)Nc4ccccc4)c3)cn2n1 [Example 2.1, 3-{2-[(2-cyanophenyl)amino][1,2,4]triazolo[1,5-a]pyridin-6-yl}-N-phenylbenzamide]	65
N#Cc1ccccc1Nc1nc2ccc(-c3ccc(NC(=O)Cc4ccc(C(F)(F)F)cc4)cc3)cn2n1 [Example 3.1, N-(4-{2-[(2-cyanophenyl)amino][1,2,4]triazolo[1,5-a]pyridin-6-yl}phenyl)-2-[4-(trifluoromethyl)phenyl]acetamide]	8.2
N#Cc1ccccc1Nc1nc2ccc(-c3ccc(NC(=O)Cc4cccc(F)c4)cc3)cn2n1 [Example 3.5, N-(4-{2-[(2-cyanophenyl)amino][1,2,4]triazolo[1,5-a]pyridin-6-yl}phenyl)-2-(3-fluorophenyl)acetamide]	1.1
N#Cc1ccccc1Nc1nc2ccc(-c3ccc(NC(=O)Nc4ccccc4)cc3)cn2n1 [Example 3.7, 1-(4-{2-[(2-cyanophenyl)amino][1,2,4]triazolo[1,5-a]pyridin-6-yl}phenyl)-3-phenylurea]	12
N#Cc1ccccc1Nc1nc2ccc(-c3ccc(NC(=O)Cc4cccnc4)cc3)cn2n1 [Example 3.8, N-(4-{2-[(2-cyanophenyl)amino][1,2,4]triazolo[1,5-a]pyridin-6-yl}phenyl)-2-(pyridin-3-yl)acetamide]	3.5
COc1ccccc1Nc1nc2ccc(-c3ccc(NC(=O)CC4CC4)cc3)cn2n1 [Example 4.2, 2-cyclopropyl-N-(4-{2-[(2-methoxyphenyl)amino][1,2,4]triazolo[1,5-a]pyridin-6-yl}phenyl)acetamide]	27
COc1ccccc1Nc1nc2ccc(-c3ccc(NC(=O)C4CC4)cc3)cn2n1 [Example 4.3, N-(4-{2-[(2-methoxyphenyl)amino][1,2,4]triazolo[1,5-a]pyridin-6-yl}phenyl)cyclopropanecarboxamide]	39
O=C(Cc1ccccc1)Nc1ccc(-c2ccc3nc(Nc4ccccc4C(F)(F)F)nn3c2)cc1 [Example 5.1, 2-phenyl-N-[4-(2-{[2-(trifluoromethyl)phenyl]amino}[1,2,4]triazolo[1,5-a]pyridin-6-yl)phenyl]acetamide]	7.1
O=C(Nc1ccc(-c2ccc3nc(Nc4ccccc4C(F)(F)F)nn3c2)cc1)C1CC1 [Example 5.2, N-[4-(2-{[2-(trifluoromethyl)phenyl]amino}[1,2,4]triazolo[1,5-a]pyridin-6-yl)phenyl]cyclopropanecarboxamide]	180
O=C(CC1CC1)Nc1ccc(-c2ccc3nc(Nc4ccccc4C(F)(F)F)nn3c2)cc1 [Example 5.3, 2-cyclopropyl-N-[4-(2-{[2-(trifluoromethyl)phenyl]amino}[1,2,4]triazolo[1,5-a]pyridin-6-yl)phenyl]acetamide]	81
